According to US6914045B2, “Glycopeptide antibiotics” (Wyeth Holdings Corporation, priority 2001, dated 2005):
Converted amounts (≈) assume the structure as drawn. Values belong to the compound of their own block, whether it stands above or below them.

Experiments:
Test in all cases: in vitro antibacterial evaluation, MIC by broth dilution
Format in all cases: cell-based
[1] = system: Streptococcus sp.; details: broth dilution, 18 hours at 35° C.
In short: (§1)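 Test organisms, which included recent clinical isolates resistant to methicillin, penicillin and/or vancomycin, were inoculated at 5×10^5 CFU/mL into Muller-Hinton II […] containing antibiotic at 64-0.06 μg/mL. Minimum inhibitory concentrations were then read as the lowest level inhibiting growth.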

[2] = system: Staphylococcus sp.; details: broth dilution, 18 hours at 35° C.
In short: as §1

[3] = system: Enterococcus sp.; details: broth dilution, 18 hours at 35° C.
In short: as §1

[4] = system: Escherichia coli; details: 18 hours at 35° C.; for MIC Escherichia coli (GC 4559): strain GC 4559; for MIC Escherichia coli (GC 4560): strain GC 4560
In short: as §1

[5] = Enterococcus faecalis (ATCC 29212)
[6] = Enterococcus faecalis (GC 2242)
[7] = Enterococcus faecalis (GC 4552)

MIC Streptococcus agalactiae (GC 4564) ([1]; Streptococcus agalactiae (GC 4564)): 0.5 mg/L (≈ 0.361 µM) | MIC Streptococcus pneumoniae (ATCC 6301) ([1]; Streptococcus pneumoniae (ATCC 6301)): 0.12 to 16 mg/L | MIC Streptococcus pneumoniae (GC 1894) ([1]; Streptococcus pneumoniae (GC 1894)): 0.12 to 8 mg/L | MIC Streptococcus pneumoniae (GC 4565) ([1]; Streptococcus pneumoniae (GC 4565)): 0.12 mg/L (≈ 0.0867 µM) | MIC Streptococcus pyogenes (GC 4563) ([1]; Streptococcus pyogenes (GC 4563)): 0.12 mg/L (≈ 0.0867 µM) | MIC Streptococcus pneumoniae (ATCC 6301) ([1]; strain ATCC 6301): 0.12 to 16 mg/L | MIC Streptococcus pneumoniae (GC 1894) ([1]; strain GC 1894): 0.12 to 8 mg/L | MIC Streptococcus pyogenes (GC 4563) ([1]; strain GC 4563): 0.12 mg/L (≈ 0.0867 µM) | MIC Streptococcus agalactiae (GC 4564) ([1]; strain GC 4564): 0.5 mg/L (≈ 0.361 µM) | MIC Streptococcus pneumoniae (GC 4565) ([1]; strain GC 4565): 0.12 mg/L (≈ 0.0867 µM) | MIC Coagulase Negative Staphylococcus (GC 4547) [2]: 32 mg/L (≈ 23.1 µM) | MIC Coagulase Negative Staphylococcus (GC 4548) [2]: 16 to 32 mg/L | MIC Coagulase Negative Staphylococcus (GC 4549) [2]: 16 to 32 mg/L | MIC Coagulase Negative Staphylococcus (GC 4551) [2]: 32 mg/L (≈ 23.1 µM) | MIC Coagulase Negative Staphylococcus (GC 6257) [2]: 16 mg/L (≈ 11.6 µM) | MIC Staphylococcus aureus (ATCC 29213) [2]: 0.5 to 64 mg/L | MIC Staphylococcus aureus (GC 1131) [2]: 0.5 to 64 mg/L | MIC Staphylococcus aureus (GC 3051) [2]: 0.5 mg/L (≈ 0.361 µM) | MIC Staphylococcus aureus (GC 3053) [2]: 0.5 mg/L (≈ 0.361 µM) | MIC Staphylococcus aureus (GC 4541) [2]: 0.5 to 32 mg/L | MIC Staphylococcus aureus (GC 4542) [2]: 0.5 mg/L (≈ 0.361 µM) | MIC Staphylococcus aureus (GC 4544) [2]: 0.5 mg/L (≈ 0.361 µM) | MIC Staphylococcus aureus (GC 4545) [2]: 0.5 mg/L (≈ 0.361 µM) | MIC Staphylococcus aureus-SMITH (GC 4543) [2]: 0.5 to 64 mg/L | MIC Coagulase Negative Staphylococcus (GC 4547) ([2]; strain GC 4547): 32 mg/L (≈ 23.1 µM) | MIC Coagulase Negative Staphylococcus (GC 4548) ([2]; strain GC 4548): 16 to 32 mg/L | MIC Coagulase Negative Staphylococcus (GC 4549) ([2]; strain GC 4549): 16 to 32 mg/L | MIC Coagulase Negative Staphylococcus (GC 4551) ([2]; strain GC 4551): 32 mg/L (≈ 23.1 µM) | MIC Coagulase Negative Staphylococcus (GC 6257) ([2]; strain GC 6257): 16 mg/L (≈ 11.6 µM) | MIC Staphylococcus aureus-SMITH (GC 4543) ([2]; strain SMITH GC 4543): 0.5 to 64 mg/L | MIC Staphylococcus aureus (ATCC 29213) ([2]; strain ATCC 29213): 0.5 to 64 mg/L | MIC Staphylococcus aureus (GC 1131) ([2]; strain GC 1131): 0.5 to 64 mg/L | MIC Staphylococcus aureus (GC 3051) ([2]; strain GC 3051): 0.5 mg/L (≈ 0.361 µM) | MIC Staphylococcus aureus (GC 3053) ([2]; strain GC 3053): 0.5 mg/L (≈ 0.361 µM) | MIC Staphylococcus aureus (GC 4541) ([2]; strain GC 4541): 0.5 to 32 mg/L | MIC Staphylococcus aureus (GC 4542) ([2]; strain GC 4542): 0.5 mg/L (≈ 0.361 µM) | MIC Staphylococcus aureus (GC 4544) ([2]; strain GC 4544): 0.5 mg/L (≈ 0.361 µM) | MIC Staphylococcus aureus (GC 4545) ([2]; strain GC 4545): 0.5 mg/L (≈ 0.361 µM) | MIC Enterococcus avium (GC 4558) ([3]; Enterococcus avium (GC 4558)): >64 mg/L | MIC Enterococcus faecalis (ATCC 29212) [3, 5]: >64 mg/L | MIC Enterococcus faecalis (GC 2242) [3, 6]: >64 mg/L | MIC Enterococcus faecalis (GC 2691) ([3]; Enterococcus faecalis (GC 2691)): >0.5 mg/L | MIC Enterococcus faecalis (GC 3059) ([3]; Enterococcus faecalis (GC 3059)): >0.5 mg/L | MIC Enterococcus faecalis (GC 4552) [3, 7]: >0.5 mg/L | MIC Enterococcus faecalis (GC 4553) ([3]; Enterococcus faecalis (GC 4553)): >0.5 mg/L | MIC Enterococcus faecalis (GC 4554) ([3]; Enterococcus faecalis (GC 4554)): >0.5 mg/L | MIC Enterococcus faecalis (GC 6189) ([3]; Enterococcus faecalis (GC 6189)): >64 mg/L | MIC Enterococcus faecium (GC 2243) ([3]; Enterococcus faecium (GC 2243)): >64 mg/L | MIC Enterococcus faecium (GC 4556) ([3]; Enterococcus faecium (GC 4556)): >64 mg/L | MIC Enterococcus faecium (GC 4557) ([3]; Enterococcus faecium (GC 4557)): 0.5 mg/L (≈ 0.361 µM) | MIC Enterococcus faecalis (ATCC 29212) ([3]; strain ATCC 29212): >64 mg/L | MIC Enterococcus faecalis (GC 2242) ([3]; strain GC 2242): >64 mg/L | MIC Enterococcus faecium (GC 2243) ([3]; strain GC 2243): >64 mg/L | MIC Enterococcus faecalis (GC 2691) ([3]; strain GC 2691): >0.5 mg/L | MIC Enterococcus faecalis (GC 3059) ([3]; strain GC 3059): >0.5 mg/L | MIC Enterococcus faecalis (GC 4552) ([3]; strain GC 4552): >0.5 mg/L | MIC Enterococcus faecalis (GC 4553) ([3]; strain GC 4553): >0.5 mg/L | MIC Enterococcus faecalis (GC 4554) ([3]; strain GC 4554): >0.5 mg/L | MIC Enterococcus faecium (GC 4556) ([3]; strain GC 4556): >64 mg/L | MIC Enterococcus faecium (GC 4557) ([3]; strain GC 4557): 0.5 mg/L (≈ 0.361 µM) | MIC Enterococcus avium (GC 4558) ([3]; strain GC 4558): >64 mg/L | MIC Enterococcus faecalis (GC 6189) ([3]; strain GC 6189): >64 mg/L | MIC Escherichia coli (ATCC 25922) ([4]; strain ATCC 25922): >64 mg/L | MIC Escherichia coli (GC 4559) [4]: >64 mg/L | MIC Escherichia coli (GC 4560) [4]: 0.5 to 16 mg/L
Compound: CC(c1ccccc1)C1NC(=O)CNC(=O)C(CO)NC(=O)C(C(O)C2CNC(=N)N2C2OC(CO)C(O)C(O)C2O)NC(=O)C(C(O)C2CNC(=N)N2)NC(=O)C(Cc2ccc(OC3OC(CO)C(OC4OC(CO)C(O)C5OC(c6ccccc6)OC45)C(O)C3O)cc2)NC1=O (single isomer, unassigned) [Example 104a, Cyclo[glycyl-β-methylphenylalanyl-O-[4-O-(2,3-O-benzylidenehexopyranosyl)hexopyranosyl]-tyrosyl-3-(2-iminoimidazolidin-4-yl)seryl-3-(3-hexopyranosyl-2-iminoimidazolidin-4-yl)-serylseryl]]
MIC Staphylococcus haemolyticus (GC 4546) [2]: 32 mg/L (≈ 23.1 µM) | MIC Staphylococcus haemolyticus (GC 4546) ([2]; strain GC 4546): 32 mg/L (≈ 23.1 µM)

MIC Coagulase Negative Staphylococcus (GC 4537) [2]: 2 mg/L (≈ 1.41 µM) | MIC Coagulase Negative Staphylococcus (GC 4538) [2]: 1 mg/L (≈ 0.704 µM) | MIC Coagulase Negative Staphylococcus (GC 4547) [2]: 1 mg/L (≈ 0.704 µM) | MIC Staphylococcus aureus (ATCC 29213) [2]: 2 mg/L (≈ 1.41 µM) | MIC Staphylococcus aureus (GC 1131) [2]: 2 mg/L (≈ 1.41 µM) | MIC Staphylococcus aureus (GC 4535) [2]: 2 mg/L (≈ 1.41 µM) | MIC Staphylococcus aureus-SMITH (GC 4536) [2]: 2 mg/L (≈ 1.41 µM) | MIC Coagulase Negative Staphylococcus (GC 4537) ([2]; strain GC 4537): 2 mg/L (≈ 1.41 µM) | MIC Coagulase Negative Staphylococcus (GC 4538) ([2]; strain GC 4538): 1 mg/L (≈ 0.704 µM) | MIC Coagulase Negative Staphylococcus (GC 4547) ([2]; strain GC 4547): 1 mg/L (≈ 0.704 µM) | MIC Staphylococcus aureus (ATCC 29213) ([2]; strain ATCC 29213): 2 mg/L (≈ 1.41 µM) | MIC Staphylococcus aureus (GC 1131) ([2]; strain GC 1131): 2 mg/L (≈ 1.41 µM) | MIC Staphylococcus aureus (GC 4535) ([2]; strain GC 4535): 2 mg/L (≈ 1.41 µM) | MIC Staphylococcus aureus-SMITH (GC 4536) ([2]; strain GC 4536): 2 mg/L (≈ 1.41 µM) | MIC Enterococcus faecalis (ATCC 29212) [3, 5]: 8 mg/L (≈ 5.64 µM) | MIC Enterococcus faecalis (GC 2242) [3, 6]: 8 mg/L (≈ 5.64 µM) | MIC Enterococcus faecalis (GC 4552) [3, 7]: 8 mg/L (≈ 5.64 µM) | MIC Enterococcus faecalis (ATCC 29212) ([3]; strain ATCC 29212): 8 mg/L (≈ 5.64 µM) | MIC Enterococcus faecalis (GC 2242) ([3]; strain GC 2242): 8 mg/L (≈ 5.64 µM) | MIC Enterococcus faecalis (GC 4552) ([3]; strain GC 4552): 8 mg/L (≈ 5.64 µM) | MIC Escherichia coli (GC 4559) [4]: >128 mg/L | MIC Escherichia coli (GC 4560) [4]: 0.5 mg/L (≈ 0.352 µM)
Compound: CC(c1ccccc1)C1NC(=O)CNC(=O)C(CO)NC(=O)C(C(O)C2CNC(=N)N2C2OC(CO)C(O)C(O)C2O)NC(=O)C(C(O)C2CNC(=N)N2)NC(=O)C(Cc2ccc(OC3OC(COC(=O)CCC4CCCC4)C(OC4OC(CO)C(O)C(O)C4O)C(O)C3O)cc2)NC1=O (stereo not drawn) [Example 100b]

MIC Coagulase Negative Staphylococcus (GC 4537) [2]: 1 mg/L (≈ 0.704 µM) | MIC Coagulase Negative Staphylococcus (GC 4538) [2]: 1 mg/L (≈ 0.704 µM) | MIC Coagulase Negative Staphylococcus (GC 4547) [2]: 1 mg/L (≈ 0.704 µM) | MIC Staphylococcus aureus (ATCC 29213) [2]: 1 mg/L (≈ 0.704 µM) | MIC Staphylococcus aureus (GC 1131) [2]: 1 mg/L (≈ 0.704 µM) | MIC Staphylococcus aureus (GC 4535) [2]: 1 mg/L (≈ 0.704 µM) | MIC Staphylococcus aureus-SMITH (GC 4536) [2]: 1 mg/L (≈ 0.704 µM) | MIC Coagulase Negative Staphylococcus (GC 4537) ([2]; strain GC 4537): 1 mg/L (≈ 0.704 µM) | MIC Coagulase Negative Staphylococcus (GC 4538) ([2]; strain GC 4538): 1 mg/L (≈ 0.704 µM) | MIC Coagulase Negative Staphylococcus (GC 4547) ([2]; strain GC 4547): 1 mg/L (≈ 0.704 µM) | MIC Staphylococcus aureus (ATCC 29213) ([2]; strain ATCC 29213): 1 mg/L (≈ 0.704 µM) | MIC Staphylococcus aureus (GC 1131) ([2]; strain GC 1131): 1 mg/L (≈ 0.704 µM) | MIC Staphylococcus aureus (GC 4535) ([2]; strain GC 4535): 1 mg/L (≈ 0.704 µM) | MIC Staphylococcus aureus-SMITH (GC 4536) ([2]; strain GC 4536): 1 mg/L (≈ 0.704 µM) | MIC Enterococcus faecalis (ATCC 29212) [3, 5]: 4 mg/L (≈ 2.82 µM) | MIC Enterococcus faecalis (GC 2242) [3, 6]: 2 mg/L (≈ 1.41 µM) | MIC Enterococcus faecalis (GC 4552) [3, 7]: 4 mg/L (≈ 2.82 µM) | MIC Enterococcus faecalis (ATCC 29212) ([3]; strain ATCC 29212): 4 mg/L (≈ 2.82 µM) | MIC Enterococcus faecalis (GC 2242) ([3]; strain GC 2242): 2 mg/L (≈ 1.41 µM) | MIC Enterococcus faecalis (GC 4552) ([3]; strain GC 4552): 4 mg/L (≈ 2.82 µM) | MIC Escherichia coli (GC 4559) [4]: 32 mg/L (≈ 22.5 µM) | MIC Escherichia coli (GC 4560) [4]: 0.5 mg/L (≈ 0.352 µM)
Compound: CC(c1ccccc1)C1NC(=O)CNC(=O)C(CO)NC(=O)C(C(O)C2CNC(=N)N2C2OC(CO)C(O)C(O)C2O)NC(=O)C(C(O)C2CNC(=N)N2)NC(=O)C(Cc2ccc(OC3OC(CO)C(OC4OC(COC(=O)CCC5CCCC5)C(O)C(O)C4O)C(O)C3O)cc2)NC1=O (stereo not drawn) [Example 100c]
